Several values for one entry are separate records, joined by “and”; a condition that tells them apart may be missing. Equal values may be shown once.
Key:
Type in all cases: biochemical
firefly luciferase [1] = molecular target: T1, firefly luciferase (Photinus pyralis, UniProt P08659); experiment: Effect of inhibitor on the bioluminescent assay of ATP
T1 construct: purchased Lumac/3M Lumit PM
Description: Assay: from each sample triplicate 100 μl aliquots were taken. In those aliquots ATP was measured as described.
Assay: from each sample triplicate 100 μl aliquots were taken. ATP in those aliquots was measured as described.
Assay: From each sample triplicate 100 μl aliquots were taken and ATP was measured as described.
Protocol: Eight samples were prepared using materials described above and previously, as shown in TABLE 7-1 and incubated for various periods of time (i.e., 0, 5, 10 and […]) before aliquots were taken and assayed as described.
Protocol: Increasing concentrations of hexokinase, with and without PCMPSA were prepared according to TABLE 8-1 using materials described above and previously.

firefly luciferase [2] = molecular target: T1, firefly luciferase; experiment: as above; details: for RLU mean / RLU, triplicate aliquots 1, 2, 3: no kinase
glycerokinase = experiment: Inhibition of glycerokinase (protection of ATP), bioluminescent ATP assay in buffer; details: for RLU 5 min.: 5 min. after glycerol; for RLU 10 min.: 10 min. after glycerol; for RLU 15 min.: 15 min. after glycerol; for RLU 0 min.: before glycerol added
Description: Assay: Glycerol was added last to the samples to initiate the enzyme's activity. Before glycerol was added a 50 μl aliquot was taken from all samples. ATP levels in those aliquots (expressed in RLU) were determined as time zero values. Next glycerol was added to the mixtures and further 50 μl aliquots were taken at 5, 10, and 15 minutes. ATP in all aliquots was measured by bioluminescent means as described. Results:
(§1) Assay: Glycerol was added last to the samples to initiate the enzyme's activity. Before glycerol was added a 50 μl aliquot was taken from all samples as time zero. Next glycerol was added to the samples and after 5, 10 and 15 minutes, 50 μl aliquots were again taken. ATP in all aliquots was measured as described.
as §1, with “At” for “Next glycerol was added to the samples and after”, “minutes after addition of glycerol further” for “minutes,”, “taken from the samples.” for “again taken.”

[3] = DNFB 0.0827 mM, ATP in Lumit buffer
[4] = DNFB 0.827 mM, ATP in Lumit buffer
[5] = DNFB 8.27 mM, ATP in Lumit buffer
[6] = PCMB 0.01 mM, ATP in buffer, no kinase
[7] = PCMB 0.01 mM, glycerokinase 1.6 U/ml
[8] = PCMB 0.05 mM, glycerokinase 1.6 U/ml
[9] = PCMB 0.1 mM, glycerokinase 1.6 U/ml
[10] = PCMB 0.5 mM, glycerokinase 1.6 U/ml
[11] = PCMB 1 mM, glycerokinase 1.6 U/ml
[12] = PCMB 2 mM, glycerokinase 1.6 U/ml

T1 sequence (P08659 whole entry): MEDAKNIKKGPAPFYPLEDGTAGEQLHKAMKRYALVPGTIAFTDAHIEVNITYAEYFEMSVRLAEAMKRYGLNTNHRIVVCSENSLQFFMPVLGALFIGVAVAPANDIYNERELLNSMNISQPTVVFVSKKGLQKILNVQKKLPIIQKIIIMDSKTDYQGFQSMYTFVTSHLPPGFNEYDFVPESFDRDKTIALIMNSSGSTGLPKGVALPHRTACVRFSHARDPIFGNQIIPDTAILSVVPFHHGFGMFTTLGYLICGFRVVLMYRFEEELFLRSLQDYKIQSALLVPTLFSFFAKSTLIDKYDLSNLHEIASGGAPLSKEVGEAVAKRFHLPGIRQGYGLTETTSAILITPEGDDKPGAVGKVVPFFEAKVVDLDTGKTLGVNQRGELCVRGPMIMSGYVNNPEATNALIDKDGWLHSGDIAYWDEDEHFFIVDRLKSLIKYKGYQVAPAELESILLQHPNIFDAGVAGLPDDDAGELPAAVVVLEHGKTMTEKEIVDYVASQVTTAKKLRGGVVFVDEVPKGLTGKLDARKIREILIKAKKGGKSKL

O=[N+]([O-])c1ccc(F)c([N+](=O)[O-])c1 [DNFB]
% of control (firefly luciferase [1]; DNFB 0.0827 mM, control = ethanol, 0 mM DNFB): 106%
interference with the bioluminescent assay of ATP by firefly luciferase (conclusion in words) (firefly luciferase [1]; DNFB concentrations of Example 3): does not interfere
RLU mean (firefly luciferase [2]; [3]): 15429 RLU
RLU, triplicate aliquots 1, 2, 3 (firefly luciferase [2]; [3]): 15157 RLU and 15625 RLU and 15507 RLU
RLU mean (firefly luciferase [2]; [4]): 15914 RLU
RLU, triplicate aliquots 1, 2, 3 (firefly luciferase [2]; [4]): 16060 RLU and 15753 RLU and 15929 RLU
% of control (firefly luciferase [2]; DNFB 0.827 mM, control = ethanol, 0 mM DNFB): 110%
RLU mean (firefly luciferase [2]; [5]): 14784 RLU
RLU, triplicate aliquots 1, 2, 3 (firefly luciferase [2]; [5]): 14498 RLU and 14780 RLU and 15076 RLU
% of control (firefly luciferase [2]; DNFB 8.27 mM, control = ethanol, 0 mM DNFB): 102.2%
inhibition of glycerokinase (conclusion in words) (glycerokinase; 0.0827 mM DNFB): not effectively inhibited
inhibition of glycerokinase (conclusion in words) (glycerokinase; 0.27 mM DNFB (so in the source)): effectively inhibited
inhibition of glycerokinase (conclusion in words) (glycerokinase; 8.27 mM DNFB (so in the source)): moderately inhibited
RLU 5 min. (glycerokinase; DNFB 0.0827 mM, glycerokinase): 11 RLU
RLU 10 min. (glycerokinase; DNFB 0.0827 mM, glycerokinase): 11 RLU
RLU 15 min. (glycerokinase; DNFB 0.0827 mM, glycerokinase): 18 RLU
RLU 0 min. (glycerokinase; DNFB 0.0827 mM, glycerokinase): 7025 RLU
RLU 5 min. (glycerokinase; DNFB 0.827 mM, glycerokinase): 1585 RLU
RLU 10 min. (glycerokinase; DNFB 0.827 mM, glycerokinase): 1498 RLU
RLU 15 min. (glycerokinase; DNFB 0.827 mM, glycerokinase): 1618 RLU
RLU 0 min. (glycerokinase; DNFB 0.827 mM, glycerokinase): 7402 RLU
RLU 5 min. (glycerokinase; DNFB 8.27 mM, glycerokinase): 7785 RLU
RLU 10 min. (glycerokinase; DNFB 8.27 mM, glycerokinase): 7965 RLU
RLU 15 min. (glycerokinase; DNFB 8.27 mM, glycerokinase): 7968 RLU
RLU 0 min. (glycerokinase; DNFB 8.27 mM, glycerokinase): 8002 RLU

CCN1C(=O)C=CC1=O [NEM, N-ethylmaleimide]
% of control (firefly luciferase [1]; NEM 19.8 mM, control = 0 mM NEM): 86.3%
RLU mean (firefly luciferase [2]; NEM 4.10 mM, ATP in buffer): 14410 RLU
RLU, triplicate aliquots 1, 2, 3 (firefly luciferase [2]; NEM 4.10 mM, ATP in buffer): 14387 RLU and 14794 RLU and 14051 RLU
% of control (firefly luciferase [2]; NEM 4.10 mM, control = 0 mM NEM): 97.6%
RLU mean (firefly luciferase [2]; NEM 8.14 mM, ATP in buffer): 14608 RLU
RLU, triplicate aliquots 1, 2, 3 (firefly luciferase [2]; NEM 8.14 mM, ATP in buffer): 14401 RLU and 14667 RLU and 14756 RLU
% of control (firefly luciferase [2]; NEM 8.14 mM, control = 0 mM NEM): 99.0%
RLU mean (firefly luciferase [2]; NEM 12.1 mM, ATP in buffer): 13737 RLU
RLU, triplicate aliquots 1, 2, 3 (firefly luciferase [2]; NEM 12.1 mM, ATP in buffer): 14139 RLU and 13794 RLU and 13279 RLU
% of control (firefly luciferase [2]; NEM 12.1 mM, control = 0 mM NEM): 93.1%
RLU mean (firefly luciferase [2]; NEM 16.0 mM, ATP in buffer): 13212 RLU
RLU, triplicate aliquots 1, 2, 3 (firefly luciferase [2]; NEM 16.0 mM, ATP in buffer): 12750 RLU and 13438 RLU and 13448 RLU
% of control (firefly luciferase [2]; NEM 16.0 mM, control = 0 mM NEM): 89.5%
RLU mean (firefly luciferase [2]; NEM 19.8 mM, ATP in buffer): 12747 RLU
RLU, triplicate aliquots 1, 2, 3 (firefly luciferase [2]; NEM 19.8 mM, ATP in buffer): 13534 RLU and 12596 RLU and 12111 RLU
RLU mean (firefly luciferase [2]; NEM .414 mM, ATP in buffer): 14962 RLU
RLU, triplicate aliquots 1, 2, 3 (firefly luciferase [2]; NEM .414 mM, ATP in buffer): 15071 RLU and 15081 RLU and 14735 RLU
% of control (firefly luciferase [2]; NEM .414 mM, control = 0 mM NEM): 101.4%
interference with the bioluminescent assay of ATP (conclusion in words) (firefly luciferase [2]; NEM concentrations of Example 5): interferes only moderately, if at all
RLU 5 min. (glycerokinase; NEM 4.10 mM, glycerokinase): 7275 RLU
RLU 10 min. (glycerokinase; NEM 4.10 mM, glycerokinase): 6398 RLU
RLU 15 min. (glycerokinase; NEM 4.10 mM, glycerokinase): 5922 RLU
RLU 0 min. (glycerokinase; NEM 4.10 mM, glycerokinase): 7635 RLU
RLU 5 min. (glycerokinase; NEM 8.14 mM, glycerokinase): 7130 RLU
RLU 10 min. (glycerokinase; NEM 8.14 mM, glycerokinase): 6623 RLU
RLU 15 min. (glycerokinase; NEM 8.14 mM, glycerokinase): 6365 RLU
RLU 0 min. (glycerokinase; NEM 8.14 mM, glycerokinase): 7742 RLU
RLU 5 min. (glycerokinase; NEM 12.1 mM, glycerokinase): 7413 RLU
RLU 10 min. (glycerokinase; NEM 12.1 mM, glycerokinase): 6812 RLU
RLU 15 min. (glycerokinase; NEM 12.1 mM, glycerokinase): 6997 RLU
RLU 0 min. (glycerokinase; NEM 12.1 mM, glycerokinase): 7660 RLU
RLU 5 min. (glycerokinase; NEM 19.8 mM, glycerokinase): 7138 RLU
RLU 10 min. (glycerokinase; NEM 19.8 mM, glycerokinase): 6547 RLU
RLU 15 min. (glycerokinase; NEM 19.8 mM, glycerokinase): 6820 RLU
RLU 0 min. (glycerokinase; NEM 19.8 mM, glycerokinase): 7406 RLU
RLU 5 min. (glycerokinase; NEM 16. mM, glycerokinase): 7192 RLU
RLU 10 min. (glycerokinase; NEM 16. mM, glycerokinase): 7002 RLU
RLU 15 min. (glycerokinase; NEM 16. mM, glycerokinase): 6962 RLU
RLU 0 min. (glycerokinase; NEM 16. mM, glycerokinase): 7199 RLU
inhibition of glycerokinase (conclusion in words) (glycerokinase; each NEM concentration tested (4.10-19.8 mM)): seems to be inhibited

O=C(O)c1cc[c]([Hg][Cl])cc1 [PCMB, p-chloromercuribenzoic acid]
RLU mean (firefly luciferase [1]; [6]): 17887 RLU
RLU, triplicate aliquots 1, 2, 3 (firefly luciferase [1]; [6]): 17959 RLU and 18219 RLU and 17484 RLU
% of control (firefly luciferase [1]; PCMB 0.01 mM, control = 0 mM PCMB): 97%
interference with the bioluminescent assay (conclusion in words) (firefly luciferase [1]; PCMB 0.01-1mM): do not significantly interfere
RLU, triplicate aliquots 1, 2, 3 (firefly luciferase [1]; PCMB 10 mM, ATP in buffer, no kinase): 11 RLU and 10 RLU
RLU mean (firefly luciferase [2]; PCMB 0.05 mM, ATP in buffer): 17508 RLU
RLU, triplicate aliquots 1, 2, 3 (firefly luciferase [2]; PCMB 0.05 mM, ATP in buffer): 17984 RLU and 17423 RLU and 17118 RLU
% of control (firefly luciferase [2]; PCMB 0.05 mM, control = 0 mM PCMB): 95%
RLU mean (firefly luciferase [2]; PCMB 0.1 mM, ATP in buffer): 18246 RLU
RLU, triplicate aliquots 1, 2, 3 (firefly luciferase [2]; PCMB 0.1 mM, ATP in buffer): 17914 RLU and 18720 RLU and 18505 RLU
% of control (firefly luciferase [2]; PCMB 0.1 mM, control = 0 mM PCMB): 99%
RLU mean (firefly luciferase [2]; PCMB 0.5 mM, ATP in buffer): 18142 RLU
RLU, triplicate aliquots 1, 2, 3 (firefly luciferase [2]; PCMB 0.5 mM, ATP in buffer): 18190 RLU and 18413 RLU and 17824 RLU
% of control (firefly luciferase [2]; PCMB 0.5 mM, control = 0 mM PCMB): 99%
RLU mean (firefly luciferase [2]; PCMB 1 mM, ATP in buffer): 13696 RLU
RLU, triplicate aliquots 1, 2, 3 (firefly luciferase [2]; PCMB 1 mM, ATP in buffer): 14576 RLU and 13556 RLU and 12956 RLU
% of control (firefly luciferase [2]; PCMB 1 mM, control = 0 mM PCMB): 75%
RLU mean (firefly luciferase [2]; PCMB 5 mM, ATP in buffer): 10 RLU
RLU, triplicate aliquots 1, 2, 3 (firefly luciferase [2]; PCMB 5 mM, ATP in buffer): 11 RLU and 10 RLU and 9 RLU
% of control (firefly luciferase [2]; PCMB 5 mM, control = 0 mM PCMB): < 1%
RLU mean (firefly luciferase [2]; PCMB 10 mM, ATP in buffer): 10 RLU
% of control (firefly luciferase [2]; PCMB 10 mM, control = 0 mM PCMB): < 1%
RLU 5 min. (glycerokinase; [7]): 9121 RLU
RLU 10 min. (glycerokinase; [7]): 8982 RLU
RLU 15 min. (glycerokinase; [7]): 3913 RLU
RLU 0 min. (glycerokinase; [7]): 9065 RLU
RLU 5 min. (glycerokinase; [8]): 9048 RLU
RLU 10 min. (glycerokinase; [8]): 8727 RLU
RLU 15 min. (glycerokinase; [8]): 9049 RLU
RLU 0 min. (glycerokinase; [8]): 9003 RLU
RLU 5 min. (glycerokinase; [9]): 9560 RLU
RLU 10 min. (glycerokinase; [9]): 9253 RLU
RLU 15 min. (glycerokinase; [9]): 9421 RLU
RLU 0 min. (glycerokinase; [9]): 9499 RLU
RLU 5 min. (glycerokinase; [10]): 8800 RLU
RLU 10 min. (glycerokinase; [10]): 8617 RLU
RLU 15 min. (glycerokinase; [10]): 9028 RLU
RLU 0 min. (glycerokinase; [10]): 9041 RLU
RLU 5 min. (glycerokinase; [11]): 9437 RLU
RLU 10 min. (glycerokinase; [11]): 9329 RLU
RLU 15 min. (glycerokinase; [11]): 9591 RLU
RLU 0 min. (glycerokinase; [11]): 8802 RLU
RLU 5 min. (glycerokinase; [12]): 7245 RLU
RLU 10 min. (glycerokinase; [12]): 7905 RLU
RLU 15 min. (glycerokinase; [12]): 7568 RLU
RLU 0 min. (glycerokinase; [12]): 7987 RLU
inhibition of glycerokinase (conclusion in words) (glycerokinase; PCMB final concentration 0.01 mM): sufficiently inhibited
inhibition of glycerokinase (conclusion in words) (glycerokinase; PCMB, Samples 1-6 (0.01-2 mM)): very effective inhibitor of glycerokinase
